Source: PMC6826492, “Experimental and Computational Study of the Antioxidative Potential of Novel Nitro and Amino Substituted Benzimidazole/Benzothiazole-2-Carboxamides with Antiproliferative Activity” (Antioxidants, 2019)
Where two headings read alike, the source gives them in different places.

What was measured:
HCT116 cell line [1] = experiment: Cellular ROS measurement assay (DCFH-DA, flow cytometry); assay type: cell-based, human; details: HCT116, 10 µM compounds (2 mM H2O2 positive control), 1 h, DCF-DA; *** p < 0.001, ns not significant
Procedure: Figure S53. Impact of compounds on cellular ROS production was measured with fluorescent dye DCF-DA in HCT116 cell line, after the treatment with 10 µM compounds for 1h. H 2O2 was used as a positive control. Data presented here are the results of 3 independent measurements, done in duplicates. One-way ANOVA with Tukey’s post-hoc test was used for statistical analysis, ***- p < 0.001. […]
Human colon carcinoma cell line HCT116 was grown in DMEM medium with the addition of 10% fetal bovine serum (FBS), 2 mM L-glutamine, 100 U/ml penicillin and 100 µg/ml streptomycin, and cultured as monolayers at 37°C in a humidified atmosphere with 5% CO2.
Cellular ROS measurement assay
For the cellular ROS measurement assay, 2.5 × 10^4 cells were seeded into 96-well microtiter plates 24h prior to experiment. Next day, cells were trypsinized and incubated in FBS-free DMEM medium with 20 µM DCFH-DA fluorescence dye for 45 minutes. After the incubation, compounds were added without washing and cells were treated with 2 mM H 2O2 as a positive control and 10 µM compounds 8, 14 and 26 for 1 hour. Cells were washed in PBS and DCFH-DA signal was measured by flow cytometry, in FL1 channel. […]

HCT116 cell line [2] = experiment: Mitochondrial ROS measurement assay (MitoSOX, flow cytometry); assay type: cell-based, human; details: HCT116, 10 µM compounds (3 µM Rotenone positive control), 1 h, *** p < 0.001, ns not significant
[3] = test system: HCT 116 (colon carcinoma); experiment: Antiproliferative activity in vitro (MTT assay); assay type: cell-based, human; details: 72 h incubation, concentration that causes 50% growth inhibition, read-out: IC50 HCT116
Procedure: (§1) The experiments were performed on four human cell lines, including HCT 116 (colon carcinoma), H 460 (lung carcinoma), MCF-7 (breast carcinoma), and HEK 293 (human embryonic kidney cells), in line with previously published experimental procedures. Briefly, the cells were grown in DMEM medium with the addition of 10% fetal bovine serum (FBS), 2 mM L-glutamine, 100 U/mL penicillin, and 100 µg/mL streptomycin, and cultured as monolayers at 37 °C in a humidified atmosphere with 5% CO2. Cells were seeded at 2 × 10^3 cells/well in a standard 96-well microtiter plates and left to attach for 24 h. The next day, a test compound was added in five serial 10-fold dilutions. The rate of cell growth was evaluated after 72 h of incubation with MTT assays. The obtained results are expressed as IC50 values, calculated from the concentration-response curve using linear regression analysis by fitting the test concentrations that give PG values above and below the reference value (i.e., 50%). Each test was performed in quadruplicate in at least two individual experiments.

MCF-7 (breast carcinoma) = experiment: Antiproliferative activity in vitro (MTT assay); assay type: cell-based, human; details: 72 h incubation, concentration that causes 50% growth inhibition
Procedure: as §1

H 460 (lung carcinoma) = experiment: Antiproliferative activity in vitro (MTT assay); assay type: cell-based, human; details: 72 h incubation, concentration that causes 50% growth inhibition
Procedure: as §1

[4] = DPPH free radical scavenging; assay type: biochemical; design: key to DPPH IC50: –: Very low activity; details: after 30 min of incubation with 100 μM DPPH
Procedure: The reducing activity of investigated systems was achieved by the DPPH method according to previously described procedures with modifications to assure the use in a 96-well microplate. Briefly, equal volumes of various concentrations of tested molecules (dissolved in DMSO) were added to the solution of DPPH (final concentration 50 µM in absolute ethanol). Ethanol and DMSO were used as control solutions in line with earlier reports.

HCT 116 cells = experiment: Antioxidative activity assay in cells (TBHP-induced ROS, DCFH-DA); assay type: cell-based, human; details: 100 µM TBHP + 10 µM compound, 1 h, DCFH-DA fluorescence
Procedure: For the antioxidative activity assay, 2.5 × 10^4 cells were seeded into 96-well microtiter plates and left to attach for 24 h. The next day, cells were washed with PBS and incubated in FBS-free DMEM medium with 25 µM DCFH-DA fluorescence dye. After 45 min of incubation, medium was discarded, and cells were washed with PBS. After the washing step, cells were incubated with 100 µM tert-Butyl hydroperoxide (TBHP) alone or in combination with antioxidative agents (50 mM N-Acetyl-L-cysteine—NAC, or 10 µM tested compounds) in PBS, for 1 h at 37 °C. DCFH-DA fluorescence was recorded on a microplate fluorimeter reader (Tecan) with excitation beam of 485 nm, while the emitted fluorescence was collected at 535 nm. All tests were presented as medians of three independent measurements, done in triplicates. One-way ANOVA with Tukey’s post-hoc test was used for statistical analysis, * p < 0.05, ** p < 0.01, *** p < 0.001.
In order to test the antioxidant activity of selected systems in tumor cells (Figure 1), we treated HCT 116 cells with tert-Butyl hydroperoxide (TBHP), a substance commonly used for inducing oxidative stress in cells and tissues, alone or in a combination with a known antioxidative agent N-Acetyl-L-cysteine (NAC) or tested compounds [35]. We measured the formation of oxidative stress by-products using 2′,7′-dichlorodihydrofluorescein diacetate (DCFH-DA). We selected system 8 showing pronounced antiproliferative/cytotoxic activity, but no antioxidant capacity in DPPH/FRAP assays, 29 showing exceptionally pronounced antioxidative activity in DPPH/FRAP tests, 14 showing negligible antiproliferative but strong antioxidant capacity in both DPPH/FRAP assays, and 26 showing similarly strong antiproliferative and radical trapping activity in DPPH assay, but rather modest reducing power in FRAP assay. None of the compounds influenced the basal level of ROS in the cells. […] On the other hand, no effect was obtained upon treatment with either 8 or 14 (Figure 1). We additionally tested the impact of the selected compounds on cellular and mitochondrial ROS production in HCT 116 cells using fluorescent dyes, DCFH-DA for cellular and MitoSOX for mitochondrial ROS detection (Supplementary Materials, Figures S53 and S54).
Figure 1 Antioxidative activity of selected systems. HCT 116 cells were treated with the combination of tert-Butyl hydroperoxide (TBHP, 100 uM) and N-Acetyl-L-cysteine (NAC, 50 mM) or tested compounds 8, 14, 26, and 29 (10 µM) for 1 h. The level of reactive oxygen species (ROS) was measured with fluorescent dye 2′,7′-dichlorodihydrofluorescein diacetate (DCFH-DA) using fluorimeter. Treatment with 100 uM TBHP alone was used as a control for ROS induction. Data presented here are the results of three independent measurements, done in triplicates. […]

three human cancer cells = experiment: Antiproliferative activity in vitro, range over the tumor cell lines; assay type: cell-based; details: HCT116, MCF-7, H 460
Procedure: as §1

[5] = Ferric reducing/antioxidant power (FRAP assay); assay type: biochemical; details: means ± standard deviation; absorbance at 593 nm
Procedure: The FRAP method was carried out according to previously described procedures with some modifications to be compatible with an assay on a 96-well microplate. All tests were done in triplicate, while the obtained results were averaged and reported as Fe^2+ equivalents (Fe^2+ µmol).
By using the FRAP assay, we investigated the reducing power of investigated systems, which was monitored by the corresponding changes in the absorbance at 593 nm. This method is based on the ability of systems to reduce the ferric tripyridyl triazine complex (TPTZ) to the ferrous state (Fe^2+), which can be seen by an intense blue color. […] Good reducing ability was shown by the trimethoxy substituted benzimidazole-2-carboxamide 14 bearing the amino group (1102.5 ± 14.1 mmolFe^2+/mmolC).

[6] = test system: HEK 293 (human embryonic kidney cells); experiment: Cytotoxic activity on non-cancerous cells (MTT assay); assay type: cell-based; details: for IC50: Homo sapiens, HEK293, non-tumor cell line, 72 h incubation, MTT, concentration that causes 50% growth inhibition
Procedure: as §1

SMILES	cellular ROS production (significance vs control) (HCT116 cell line [1])	mitochondrial ROS production (significance vs control) (HCT116 cell line [2])	IC50 ([3]; Homo sapiens, HCT-116, 72 h) [µM]	IC50 (MCF-7 (breast carcinoma); Homo sapiens, MCF7, 72 h) [µM]	IC50 (H 460 (lung carcinoma); Homo sapiens, NCI-H460, 72 h) [µM]	DPPH IC50 [4]	ROS levels when oxidative stress was induced (HCT 116 cells)	IC50 (three human cancer cells) [µM]	FRAP [5] [mmolFe^2+/mmolC]	lower activity towards HEK293 cells than towards HCT116 cells (times) ([6]; HEK293 vs HCT116)	IC50 [6] [µM]	IC50 [3] [µM]	IC50 (MCF-7 (breast carcinoma)) [µM]	IC50 (H 460 (lung carcinoma)) [µM]	IC50 [4] [µM]
COc1cc(C(=O)Nc2nc3ccc([N+](=O)[O-])cc3[nH]2)cc(OC)c1OC [Compound 8, 3,4,5-trimethoxy-N-[5(6)-nitrobenzimidazol-2-yl]benzamide]	ns	ns	0.6 ± 0.03	1 ± 0.2	2 ± 0.2	–	no effect	0.6 to 2	89.7 ± 6.2	≈ 3 times	2 ± 0.5				
COc1ccccc1C(=O)Nc1nc2ccc(N)cc2s1.Cl [Compound 21, N-(6-aminobenzothiazol-2-yl)-2-methoxybenzamide hydrochloride]								3 to 10	214.3 ± 3.4		25 ± 1.5	10 ± 8	3 ± 0.7	4 ± 0.1	12 ± 1.1
COc1c(O)cc(C(=O)Nc2nc3ccc([N+](=O)[O-])cc3[nH]2)cc1O [Compound 26, 3,5-dihydroxy-4-methoxy-N-[5(6)-nitrobenzimidazol-2-yl]benzamide]	ns	ns	4 ± 0.1	3 ± 1	3 ± 0.5		significantly reduced the ROS levels		244.9 ± 4.8		3 ± 0.7				8.1 ± 1.9
